Measurements published in the supplement of paper PMC10307832.

Key:
Test in all cases: relative viability (nuclei count vs DMSO), 5 days (fraction); higher = more cells survive
Sorafenib + Foretinib = compound: CNC(=O)c1cc(Oc2ccc(NC(=O)Nc3ccc(Cl)c(C(F)(F)F)c3)cc2)ccn1 [Sorafenib] + COc1cc2c(Oc3ccc(NC(=O)C4(C(=O)Nc5ccc(F)cc5)CC4)cc3F)ccnc2cc1OCCCN1CCOCC1 [Foretinib] (partner 0.25 µM)
Method in brief: (§1)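 Dosing by pin tool came one day after lung cancer cell lines were seeded in 1536-well plates, using either one drug or a fixed anchor-drug dose plus five library-drug doses (not always all listed) in √10 steps. After 5 days, nuclei were counted on 4× images. Relative viability is treated-well nuclei count divided by vehicle-well nuclei count, and values are medians of duplicate plates.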

Sorafenib + Palbociclib = compound: CNC(=O)c1cc(Oc2ccc(NC(=O)Nc3ccc(Cl)c(C(F)(F)F)c3)cc2)ccn1 [Sorafenib] + CC(=O)c1c(C)c2cnc(Nc3ccc(N4CCNCC4)cn3)nc2n(C2CCCC2)c1=O [Palbociclib] (partner 0.5 µM)
Method in brief: as §1

Sorafenib + Lapatinib = compound: CNC(=O)c1cc(Oc2ccc(NC(=O)Nc3ccc(Cl)c(C(F)(F)F)c3)cc2)ccn1 [Sorafenib] + CS(=O)(=O)CCNCc1ccc(-c2ccc3ncnc(Nc4ccc(OCc5cccc(F)c5)c(Cl)c4)c3c2)o1 [Lapatinib] (partner 2 µM)
Method in brief: as §1

Sorafenib + Olaparib = compound: CNC(=O)c1cc(Oc2ccc(NC(=O)Nc3ccc(Cl)c(C(F)(F)F)c3)cc2)ccn1 [Sorafenib] + O=C(c1cc(Cc2n[nH]c(=O)c3ccccc23)ccc1F)N1CCN(C(=O)C2CC2)CC1 [Olaparib] (partner 8 µM)
Method in brief: as §1

Sorafenib = compound: CNC(=O)c1cc(Oc2ccc(NC(=O)Nc3ccc(Cl)c(C(F)(F)F)c3)cc2)ccn1 [Sorafenib]
Method in brief: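 Lung cancer cell lines received five library-drug doses (not always all listed) spaced by √10, pinned on vehicle-anchored 1536-well plates after an overnight stay at 37 °C. Five days later, with no medium change, nuclei were Hoechst-stained, imaged at 4× and counted with MetaXpress. Viability is treated-well nuclei relative to vehicle-well nuclei, as a median across plates. Passing plates had control CV below 25% and at least one doubling.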

Row | Cell Line | relative viability (Sorafenib + Foretinib; first compound 0.08 µM) | relative viability (Sorafenib + Foretinib; first compound 0.253 µM) | relative viability (Sorafenib + Foretinib; first compound 2.53 µM) | relative viability (Sorafenib + Foretinib; first compound 8 µM) | relative viability (Sorafenib + Palbociclib; first compound 0.08 µM) | relative viability (Sorafenib + Palbociclib; first compound 0.253 µM) | relative viability (Sorafenib + Palbociclib; first compound 2.53 µM) | relative viability (Sorafenib + Palbociclib; first compound 8 µM) | relative viability (Sorafenib + Lapatinib; first compound 0.08 µM) | relative viability (Sorafenib + Lapatinib; first compound 0.253 µM) | relative viability (Sorafenib + Lapatinib; first compound 2.53 µM) | relative viability (Sorafenib + Lapatinib; first compound 8 µM) | relative viability (Sorafenib + Olaparib; first compound 0.08 µM) | relative viability (Sorafenib + Olaparib; first compound 0.253 µM) | relative viability (Sorafenib + Olaparib; first compound 2.53 µM) | relative viability (Sorafenib + Olaparib; first compound 8 µM) | relative viability (Sorafenib; 0.08 µM) | relative viability (Sorafenib; 0.253 µM) | relative viability (Sorafenib; 2.53 µM) | relative viability (Sorafenib; 8 µM)
1 | BEN | 0.755 | 0.518 | 0.811 | 0.526 | 0.48 | 0.513 | 0.413 | 0.516 | 0.857 | 0.675 | 0.782 | 0.614 | 1.02 | 1.1 | 1.01 | 0.791 | 1.08 | 0.826 | 1.15 | 0.823
2 | COR-L23 | 1.13 | 0.982 | 0.937 | 0.765 | 0.301 | 0.288 | 0.319 | 0.264 | 1.08 | 0.795 | 0.921 | 0.914 | 0.336 | 0.372 | 0.346 | 0.233 | 1.04 | 0.926 | 0.957 | 0.781
3 | NCI-H2228 | 0.993 | 0.714 | 0.819 | 0.543 | 0.692 | 0.883 | 0.589 | 0.517 | 1.23 | 0.936 | 0.985 | 0.627 | 0.868 | 0.46 | 0.532 | 0.294 | 1.17 | 0.736 | 0.941 | 0.714
4 | NCI-H2405 | 1.14 | 1.04 | 1.07 | 0.92 | 0.553 | 0.517 | 0.561 | 0.477 | 1.26 | 0.967 | 1.09 | 0.784 | 0.891 | 0.852 | 0.887 | 0.807 | 1.12 | 0.89 | 1.06 | 0.74
5 | NCI-H1666 | 0.976 | 0.93 |  | 0.889 | 0.602 | 0.566 | 0.634 | 0.717 | 0.594 | 0.674 | 0.739 | 0.598 | 0.785 | 0.765 | 0.721 |  | 0.992 | 0.913 | 0.985 | 0.844
6 | A-427 | 1.24 | 0.989 | 0.94 | 0.754 | 0.531 | 0.553 | 0.589 | 0.474 | 1.04 | 0.948 | 1.01 | 1.06 | 0.71 | 0.771 | 0.733 | 0.635 | 0.999 | 0.902 | 0.94 | 0.752
7 | COR-L 105 | 1.32 | 0.982 | 1.18 | 1.03 | 0.452 | 0.365 | 0.411 | 0.384 | 0.413 | 0.393 | 0.482 | 0.389 | 0.697 | 0.72 | 0.78 | 0.718 | 1.11 | 0.867 | 1.15 | 0.691
